# Results published in the OligoGym collection.
# Bases are written 5' to 3'; sugars and linkages follow in the same order, as letters with counts (s phosphorothioate, o phosphodiester; PS: all linkages phosphorothioate). The collection does not say whether C is 5-methylated. l = locked nucleic acid (LNA); d = 2'-deoxy (DNA)
# Biological target: Tau
# Assay: rat primary cortical neurons, FLIPR, 25 uM ASO
row,Sequence,calcium oscillation score
1,"TTACACCATCCAAGTC (sugars l4 d9 l3, PS)",101 % of control
2,"CTCAGATTTTACTTCCAC (sugars l4 d12 l2, PS)",43.1 % of control
3,"GCATGATTGTGGGCTT (sugars l3 d10 l3, PS)",47.4 % of control
4,"GTCCCGAGCCAAAGC (sugars l3 d9 l3, PS)",31.3 % of control
5,"CTGGTTTATGATGGATGTTG (sugars l3 d14 l3, PS)",0 % of control
6,"TGGATATAGTTAAGGC (sugars l3 d10 l3, PS)",90.5 % of control
7,"TGATTGTGGGCTTAGG (sugars l3 d10 l3, PS)",2.71 % of control
8,"CCCCACTTTTAATTAAATTT (sugars l3 d15 l2, PS)",97 % of control
9,"CACTTTACACATTAAATTTA (sugars l4 d12 l4, PS)",60.9 % of control
10,"TTTTTCTCTCTTAACTTTA (sugars l4 d11 l4, PS)",83.6 % of control
11,"CTAGCCCACCCATCAATTTG (sugars l3 d14 l3, PS)",0 % of control
12,"ATTTAATTTATTTTTTACT (sugars l4 d11 l4, PS)",60.1 % of control
13,"AGAAATAAGTGGTAGT (sugars l2 d11 l3, PS)",102 % of control
14,"TATTTCCAAATTCACTTTTA (sugars llddlldddddddddldlll, PS)",120 % of control
15,"AATTTGGAAAGATGAAATTT (sugars l3 d14 l3, PS)",0 % of control
16,"GTCCCGTCTTTGCTTT (sugars l3 d10 l3, PS)",31.3 % of control
17,"CTCCTATATTCTCAGT (sugars l3 d9 l4, PS)",73.7 % of control
18,"CCCTGAAAGAGGGCAG (sugars l3 d10 l3, PS)",18.4 % of control
19,"ATCAGAGGTTTCAGAG (sugars l3 d10 l3, PS)",0 % of control
20,"CCCTAAGCTCTCACTA (sugars l2 d12 l2, PS)",69.1 % of control
21,"TCCATTAGTCTCTTCA (sugars l3 d11 l2, PS)",65.1 % of control
22,"TTGAAGTCCCGAGCCA (sugars l3 d10 l3, PS)",2.38 % of control

row,Sequence,calcium oscillation score
1,"CCCACCCAAACTCCAAGT (sugars l2 d13 l3, PS)",69.3 % of control
2,"CGTCCCAGCGTGATCTTCCA (sugars lldllddddddddddlldll, PS)",59.6 % of control
3,"AGGGACCCAATCTTCG (sugars l3 d10 l3, PS)",73.3 % of control
4,"TGGCGTTCTCGCGG (sugars l3 d8 l3, PS)",93.9 % of control
5,"AGGAAATCCACAGGGA (sugars l3 d10 l3, PS)",0 % of control
6,"CACATGCACCCAACTCTA (sugars l2 d13 l3, PS)",60.2 % of control
7,"TTGTAGACTATTTGCACACT (sugars l3 d14 l3, PS)",40.7 % of control
8,"AGACACCTCGTCAGCTAGCG (sugars l3 d14 l3, PS)",9.07 % of control
9,"TAGCAAACAGGATACA (sugars l3 d10 l3, PS)",49.8 % of control
10,"CTTTGAACACCCCATCTA (sugars l2 d14 l2, PS)",45.6 % of control
11,"ATTGTCCAGGGACCCAATCT (sugars l3 d14 l3, PS)",50.9 % of control
12,"CCTTTGAAAGTCCTTT (sugars l4 d9 l3, PS)",96.4 % of control
13,"CTCACTTTACACATTAAATT (sugars l4 d12 l4, PS)",59.8 % of control
14,"CTTTCATCTACTTTTCAG (sugars l3 d12 l3, PS)",70.8 % of control
15,"AGGCACAAGTCCTTA (sugars l3 d9 l3, PS)",107 % of control
16,"TCTCAGTGGAGCCGATCTTG (sugars l3 d14 l3, PS)",0 % of control
17,"TCATCTTTTCTAGAACC (sugars l4 d10 l3, PS)",70.9 % of control
18,"TTGCCTAATGAGCCACACTT (sugars l3 d14 l3, PS)",36.5 % of control
19,"TAATCACTCATGCCTT (sugars l4 d8 l4, PS)",65.6 % of control
20,"TCTCTGCTTACAAAATC (sugars l4 d9 l4, PS)",66.8 % of control
21,"CTTCATTCTTGCCCAA (sugars l3 d10 l3, PS)",33.3 % of control
22,"TTATTTCCAAATTCACTTTT (sugars lldllddddddddddldlll, PS)",81 % of control

row,Sequence,calcium oscillation score
1,"GCATGATTGTGGGCT (sugars l3 d9 l3, PS)",0 % of control
2,"CAAACCACTCTTATTCTTT (sugars l3 d12 l4, PS)",83.2 % of control
3,"TGTCCAGGGACCCAATCTTC (sugars l3 d14 l3, PS)",39.9 % of control
4,"CCCGTCTTTGCTTTTACTGA (sugars l3 d14 l3, PS)",0 % of control
5,"TCAGCTAAGACCCTCAGGTT (sugars l3 d14 l3, PS)",33 % of control
6,"TGTAATTTTCCCTACAT (sugars l3 d11 l3, PS)",91.3 % of control
7,"GCCCTAAAGTCCCAGG (sugars l3 d10 l3, PS)",41.9 % of control
8,"TCGCGGAAGGTCAGCTTGTG (sugars l3 d14 l3, PS)",20.3 % of control
9,"CTTTGTAATTCCTTCTCT (sugars l2 d13 l3, PS)",63.3 % of control
10,"GCGGCGCAGGCGCGAG (sugars l3 d10 l3, PS)",73.6 % of control
11,"AATAAGAAAGGAACGC (sugars l4 d7 l5, PS)",97.6 % of control
12,"ATGTTTTTTAACTCCCA (sugars l3 d11 l3, PS)",83.5 % of control
13,"TTTGGAAAGATGAAATTTGC (sugars l3 d14 l3, PS)",7.77 % of control
14,"TTCACCCCAAGACACAA (sugars l3 d11 l3, PS)",59 % of control
15,"AGCATCAGAGGTTTCA (sugars l3 d10 l3, PS)",0 % of control
16,"CCCGTGGTCTGTCTTG (sugars l3 d10 l3, PS)",0 % of control
17,"CGTTTTCTTACCACCC (sugars l2 d12 l2, PS)",46.2 % of control
18,"CCTGAAACACCTTTTTCC (sugars l2 d14 l2, PS)",71.1 % of control
19,"AAACCATGATCTTAGG (sugars l3 d10 l3, PS)",81.3 % of control
20,"CTGGTTTATGATGGAT (sugars l3 d10 l3, PS)",0 % of control
21,"CATGACATTTTAAACCC (sugars l3 d10 l4, PS)",69.2 % of control
22,"TAATCCTACCACCAGA (sugars l2 d10 l4, PS)",86 % of control

row,Sequence,calcium oscillation score
1,"ACCACATTATCATCCATTCT (sugars l3 d14 l3, PS)",32.2 % of control
2,"ACCATCATACTCCAAGT (sugars l3 d12 l2, PS)",77.7 % of control
3,"ATTTATTCCATTGCTCT (sugars l2 d11 l4, PS)",42.4 % of control
4,"GTCCTAATCCTGTGCT (sugars l3 d10 l3, PS)",87.8 % of control
5,"TCAACTCTTAGCATCCA (sugars l4 d11 l2, PS)",37.5 % of control
6,"TCCCAGCGTGATCTTCCATC (sugars ldlllddddddddddlldll, PS)",74.5 % of control
7,"GTCTGAGCTACCAGGA (sugars l3 d10 l3, PS)",11.7 % of control
8,"CCATTTTCCATATAATT (sugars l4 d9 l4, PS)",76.5 % of control
9,"TCTTACAGCCAAATGCAGTC (sugars l3 d14 l3, PS)",23.9 % of control
10,"TCCAAGTCAATGCCTGGCTT (sugars l3 d14 l3, PS)",18.1 % of control
11,"ATACTCAAATTCTTCCT (sugars l3 d10 l4, PS)",84.8 % of control
12,"TACACTGTCCTTTAAAC (sugars l4 d11 l2, PS)",66.1 % of control
13,"TGCCTAATGAGCCACACTTG (sugars l3 d14 l3, PS)",29.9 % of control
14,"CCTTTGAAAGTCCTTT (sugars l2 d12 l2, PS)",96.4 % of control
15,"TCCAAAGCATCAAATCC (sugars l3 d11 l3, PS)",85.5 % of control
16,"CATTCCCTCCAGAACCATCA (sugars l3 d14 l3, PS)",34.2 % of control
17,"TCAATTTCCCTGTTAAT (sugars l4 d11 l2, PS)",53.4 % of control
18,"CAGCTAGTGGTGCCACCTGA (sugars l3 d14 l3, PS)",16.5 % of control
19,"GGGAGGCAGACACCTC (sugars l3 d10 l3, PS)",42.8 % of control
20,"CATTATCATCCATTCTG (sugars l3 d10 l4, PS)",47.3 % of control
21,"CATATTCTTCCCTTAATA (sugars l3 d13 l2, PS)",81.1 % of control
22,"TTATTTCCAAATTCACTTTT (sugars l5 d10 l5, PS)",≥ 200 % of control

row,Sequence,calcium oscillation score
1,"CTTTATTTCCAAATTCACT (sugars l5 d9 l1 d2 l2, PS)",104 % of control
2,"GTTTGTAGACTATTT (sugars l3 d9 l3, PS)",0 % of control
3,"ATTCCCAAATTCCTCATAAT (sugars l4 d14 l2, PS)",58.6 % of control
4,"GCAGGCGCGAGCAG (sugars l3 d8 l3, PS)",40.6 % of control
5,"TTATTTCCAAATTCACTTTT (sugars l5 d11 l4, PS)",119 % of control
6,"GATGTTGCCTAATGAGCCAC (sugars l3 d14 l3, PS)",4.52 % of control
7,"TATTTCCAAATTCACTTTTA (sugars lldldldddddddddlldll, PS)",141 % of control
8,"AATATCCTTACCATCCTATC (sugars l2 d14 l4, PS)",59.1 % of control
9,"TCTTTATTAACACTCCA (sugars l4 d10 l3, PS)",72.6 % of control
10,"CAACTCTTTGAACACCCC (sugars l2 d14 l2, PS)",91.6 % of control
11,"GGAACTATTGATAA (sugars l3 d8 l3, PS)",0 % of control
12,"AATATTACATCAGTCT (sugars l4 d8 l4, PS)",34.6 % of control
13,"TCTCAAGTCTTATTCTC (sugars l3 d11 l3, PS)",38.6 % of control
14,"ATTTAGTCACCATCACT (sugars l3 d10 l4, PS)",102 % of control
15,"ACTGCTCAGCTAAGACCCTC (sugars l3 d14 l3, PS)",23.9 % of control
16,"GTTGCCTAATGAGCCA (sugars l3 d10 l3, PS)",46.1 % of control
17,"AATAAGAAAGGAACGC (sugars l4 d9 l3, PS)",102 % of control
18,"ATTCCACACATAAACAAACA (sugars l4 d12 l4, PS)",63.8 % of control
19,"AATTAACCGAACTGCG (sugars l3 d10 l3, PS)",186 % of control
20,"CGTTGCTAAGATCCAG (sugars l3 d10 l3, PS)",9.04 % of control
